Reference: patent publication US20210386367A1, “DEVICES AND SYSTEMS FOR GASTROINTESTINAL MICROBIOME DETECTION AND MANIPULATION” (Progenity, Inc., priority 2018, published 2021)
In brackets after ≈: the same amount, converted by molar mass. Read-outs that look alike come from different tables or passages of the source.

Tests used:
[1] = tested on: Escherichia coli; assay: Broth microdilution MIC, 50 clinical isolates (incl. ESBL, one NDM-1); format: cell-based
Description: Minimal inhibitory concentration (MIC) values were determined by broth microdilution or agar dilution in accordance with guidelines from the Clinical and Laboratory Standards Institute (CLSI; (1) “Methods for Dilution Antimicrobial Susceptibility Tests for Bacteria That Grow Aerobically; Approved Standard; 11th ed.” CLSI standard M07-A11, 2018; (2) “Performance Standards for Antimicrobial Susceptibility Testing; Twenty-Eighth Informational Supplement,” CLSI document M100-S28, 2018; and (3) “Methods for Antimicrobial Susceptibility Testing of Anaerobic Bacteria; Approved Standard—Eighth Edition,” CLSI document M11-A8, 2012).
Tested aerobically by broth microdilution: • Escherichia coli, n=50 • Klebsiella spp., n=50 • Pseudomonas aeruginosa, n=50 • Streptococcus spp., n=50 • Staphylococcus aureus, n=50 • Enterococcus faecalis, n=50 • Enterobacter aerogenes, n=50 • Proteus mirabilis, n=50
Broth microdilution testing of aerobic bacteria was conducted in cation-adjusted Mueller Hinton broth (MHBII). For testing streptococci, lysed horse blood (LHB) was added to MHBII broth at a final concentration of 3%. Where LHB was used, it was added after filtering.
Broth microdilution susceptibility testing in 96-well microplates was conducted in accordance with CLSI methods (1) and (2). Automated liquid handlers were used to conduct serial dilutions and liquid transfers, including the Multidrop 384 (Labsystems, Helsinki, Finland), Biomek 2000, and the Biomek FX (Beckman Coulter, Fullerton, Calif.). All wells in columns 2 through 12 of a standard 96-well microdilution plate (Costar 3795) were filled with 150 μL of the appropriate diluent. Then, 300 μL of the test agents were added to the wells of column 1 of the plates at 100× the highest final concentration to be tested. Serial two-fold dilutions were made across the rows through column 11 using the Biomek 2000. The wells of column 12 contained no drug and served as the growth control wells. This plate served as the “mother plate” from which MIC assay plates or “daughter plates” were made.
The daughter plates were loaded with 190 μL per well of the appropriate medium using the Multidrop 384. The daughter plates were created using the Biomek FX which transferred 2 μL of drug solution from each well of a mother plate to each corresponding well of the daughter plate in a single step. A standardized inoculum of each test organism was prepared per CLSI methods (1) to equal a 0.5 McFarland standard, followed by a dilution of 1:20 for aerobes and 1:10 for anaerobes. The plates were then inoculated with 10 μL of the diluted inoculum using the Biomek 2000 from low to high drug concentration, resulting in a final concentration of approximately 5×10^5 CFU/mL per well. An un-inoculated plate was incubated in parallel for each medium for the purpose of assessing solubility of the drug in the test media.
Inoculated plates were stacked 3 or 4 high, covered with a sterile lid on the top plate, placed into boxes with CO2 planchets (streptococci) or plastic bags (all other isolates). Plates were incubated at 35° C. for 16-24 hr in ambient air for aerobes or for 42-48 hr in the anaerobic environment of the Bactron II anaerobe chamber (Sheldon Manufacturing Co.; Cornelius, Oreg.). Following incubation, the microplates were removed from the incubator and viewed from the bottom using a plate viewer. The MIC values were read and recorded as the lowest concentration of drug that inhibited visible growth of the organism as per CLSI methods (1) and (2).

[2] = tested on: E. coli MMX 1312; assay: Broth microdilution MIC (time-kill study); format: cell-based, Escherichia coli; conditions: E. coli MMX 1312

| Compound | Mode [1] [µg/mL] | Cumulative percentage of isolates inhibited at MIC ([1]; 0.5 μg/mL) [%] | Number of test isolates at MIC ([1]; 0.5 μg/mL) | Cumulative percentage of isolates inhibited at MIC ([1]; 2 μg/mL) [%] | Number of test isolates at MIC ([1]; 2 μg/mL) | Cumulative percentage of isolates inhibited at MIC ([1]; 4 μg/mL) [%] | Number of test isolates at MIC ([1]; 4 μg/mL) | Cumulative percentage of isolates inhibited at MIC ([1]; 8 μg/mL) [%] | Number of test isolates at MIC ([1]; 8 μg/mL) | Cumulative percentage of isolates inhibited at MIC ([1]; 16 μg/mL) [%] | Number of test isolates at MIC ([1]; 16 μg/mL) | Cumulative percentage of isolates inhibited at MIC ([1]; 32 μg/mL) [%] | Number of test isolates at MIC ([1]; 32 μg/mL) | Cumulative percentage of isolates inhibited at MIC ([1]; 128 μg/mL) [%] | Number of test isolates at MIC ([1]; 128 μg/mL) | other results |
| --- | --- | --- | --- | --- | --- | --- | --- | --- | --- | --- | --- | --- | --- | --- | --- | --- |
| COc1c(N2C[C@@H]3CCCN[C@@H]3C2)c(F)cc2c(=O)c(C(=O)O)cn(C3CC3)c12 [moxifloxacin] | 0.03 | 60.0 | 2 | 64.0 | 2 | 66.0 | 1 | 70.0 | 2 | 88.0 | 9 | 98.0 | 5 | 100.0 | 1 | MIC range [1]: 0.015 to 128 µg/mL; Cumulative percentage of isolates inhibited at MIC ([1]; 0.015 μg/mL): 4.0%; Number of test isolates at MIC ([1]; 0.015 μg/mL): 2; Cumulative percentage of isolates inhibited at MIC ([1]; 0.03 μg/mL): 34.0%; Number of test isolates at MIC ([1]; 0.03 μg/mL): 15; Cumulative percentage of isolates inhibited at MIC ([1]; 0.06 μg/mL): 52.0%; Number of test isolates at MIC ([1]; 0.06 μg/mL): 9; MIC50 ([1]; Escherichia coli, read-out: MIC50): 0.06 µg/mL (≈ 0.149 µM); MIC90 ([1]; Escherichia coli, read-out: MIC90): 32 µg/mL (≈ 79.7 µM); Number of test isolates at MIC ([1]; […]): 1 |
| piperacillin/tazobactam [piperacillin-tazobactam] | 2 | 6.0 | 2 | 64.0 | 19 | 74.0 | 5 | 78.0 | 2 | 80.0 | 1 | 86.0 | 3 | 96.0 | 2 | % I [1]: 12% ^; % R [1]: 8%; % S [1]: 80%; MIC50 [1]: 2 µg/mL; MIC90 [1]: 64 µg/mL; Cumulative percentage of isolates inhibited at MIC ([1]; 1 μg/mL): 26.0%; Number of test isolates at MIC ([1]; 1 μg/mL): 10; Cumulative percentage of isolates inhibited at MIC ([1]; 64 μg/mL): 92.0%; Number of test isolates at MIC ([1]; 64 μg/mL): 3; Cumulative percentage of isolates inhibited at MIC ([1]; >128 μg/mL): 100.0%; Number of test isolates at MIC ([1]; >128 μg/mL): 2; Cumulative percentage of isolates inhibited at MIC ([1]; ≤[…]): 2.0%; Number of test isolates at MIC ([1]; ≤[…]): 1; MIC [2]: 16/4 |
| CN[C@H](CC(C)C)C(=O)N[C@H]1C(=O)N[C@@H](CC(N)=O)C(=O)N[C@H]2C(=O)N[C@H]3C(=O)N[C@H](C(=O)N[C@H](C(=O)O)c4cc(O)cc(O)c4-c4cc3ccc4O)[C@H](O)c3ccc(c(Cl)c3)Oc3cc2cc(c3O[C@@H]2O[C@H](CO)[C@@H](O)[C@H](O)[C@H]2O[C@H]2C[C@](C)(N)[C@H](O)[C@H](C)O2)Oc2ccc(cc2Cl)[C@H]1O [vancomycin, Vancomycin] |  |  |  |  |  |  |  |  |  |  |  |  |  |  |  | MIC ([2]; Escherichia coli, MMX1312, read-out: MIC): > 16 µg/mL |
